Like-named read-outs stand apart in the source and are kept apart here.
How the values were obtained:
[1] = Protocol: (§1) 3 μM of each probe was applied to serial two fold dilutions of the carbohydrate of which the concentration shown here are 5 mg/ml (_.), 2.5 mg/ml (. . . ) 1.25 mg/ml (__) and 0 mg/ml (_). The excitation spectrum of the probe was analyzed for wavelengths 300-500 nm with emission read at 545 nm.
3 μM of each probe was applied to serial two fold dilutions of the carbohydrate. Respective probes were excited at wavelengths unique to each probe (specified in figure), and emission was read at 545 nm. […] The mean increase in signal (_) with [Glucose] and the fitted regression line (__) is shown.
(§2) Serial dilutions of carbohydrate suspensions were prepared in dH2O. Concentrations ranging from 10 to 0.039 mg/ml was used for β-1,3-glucan, cellulose and chitin, whereas 5 to 0.019 mg/ml was used for sodium alginate, glucose, amylose, glycogen, cellulobiose, heparin, chondroitin sulfate A. 3 μM of each LCO probe was added to 1 ml aliquots of each concentration of carbohydrate, after which 100 μl was dispensed in triplicates into 96 well plates. Excitation spectra were collected by exciting the sample from 300 to 500 nm and detecting emission at 545 nm. Detection of carbohydrate is concluded when there is a reproducible change in λmax and/or RFU intensity with reference to the negative control. Data from three concentrations, as well as the negative control are shown for each carbohydrate as specified in respective figure.
(§3) The excitation wavelength (emission detected at 545 nm) selected for each LCO is either (1) the λmax, or (2) the excitation wavelength which suffers the lowest background. A linear regression analysis is performed to determine the relationship between the carbohydrate concentration and RFU.

[2] = for RFU change (Correlation analysis): probe-specific excitation λ, emission 545 nm; for carbohydrate can be detected and/or differentiated by the LCO: conclusion from change in signal magnitude and/or shift in λmax; for Gradient Parameters (gradient of regression line) / Linear relationship / Quality of Gradient: linear regression
Protocol: 3 μM of each probe was applied to serial two fold dilutions of the carbohydrate of which the concentration shown here are 5 mg/ml (_.), 2.5 mg/ml (. . . ), 1.25 mg/ml (__) and 0 mg/ml (_). The excitation spectrum of the probe was analyzed for wavelengths 300-500 nm with emission read at 545 nm.
(§4) 3 μM of each probe was applied to serial two fold dilutions of the carbohydrate. Respective probes were excited at wavelengths unique to each probe (specified in figure), and emission was read at 545 nm.
as §2, §3

[3] = for RFU change (Correlation analysis): probe-specific excitation λ, emission 545 nm; for carbohydrate can be detected and/or differentiated by the LCO: conclusion from change in signal magnitude and/or shift in λmax
Protocol: (§5) The excitation spectrum of the probe was analyzed for wavelengths 300-500 nm with emission read at 545 nm.
(§6) 3 μM of each probe was applied to serial two fold dilutions of the insoluble carbohydrate. Respective probes were excited at wavelengths unique to each probe (specified in figure), and emission was read at 545 nm.
as §2, §3

[4] = for RFU change (Correlation analysis): probe-specific excitation λ, emission 545 nm; for carbohydrate can be detected and/or differentiated by the LCO: conclusion from change in signal magnitude and/or shift in λmax; remark: listed apart in the source
Protocol: as §1, §4, §2, §3

[5] = remark: listed apart in the source
Protocol: 3 μM of each probe was applied to serial two fold dilutions of the insoluble carbohydrate of which the concentration shown here are 5 mg/ml (_.), 2.5 mg/ml (. . . ), 1.25 mg/ml (__) and 0 mg/ml (_). The excitation spectrum of the probe was analyzed for wavelengths 300-500 nm with emission read at 545 nm.
as §6, §2, §3

[6] = remark: listed apart in the source
Protocol: as §5, §4, §2, §3

[7] = glucose concentration vs RFU, linear regression
[8] = Glycogen 5-0.019 mg/ml, 3 μM probe, spectral analysis, Excitation 300-500, Emission 545
[9] = Chitin 10-[…], 3 μM probe, spectral analysis, Excitation 300-500, Emission 545
[10] = cellulose concentration vs RFU, linear regression
[11] = chitin concentration vs RFU, linear regression
[12] = β-1,3-glucan concentration vs RFU, linear regression
[13] = Cellulobiose 5-0.019 mg/ml, 3 μM probe, spectral analysis, Excitation 300-500, Emission 545
[14] = amylose concentration vs RFU, linear regression
[15] = cellulobiose concentration vs RFU, linear regression
[16] = sodium alginate concentration vs RFU, linear regression
[17] = Chondroitin Sulfate A 5-0.019 mg/ml, 3 μM probe, spectral analysis, Excitation 300-500, Emission 545
[18] = Chondroitin Sulfate A concentration vs RFU, linear regression

O=C([O-])CC[C@H](NC(=O)Cc1cc(-c2cccs2)sc1-c1ccc(-c2sc(-c3cccs3)cc2CC(=O)N[C@@H](CCC(=O)[O-])C(=O)[O-])s1)C(=O)[O-].[Na+].[Na+].[Na+].[Na+] [pHTA-Glu, penta Hydrogen Thiophene Acetic acid Glutamic acid]
RFU change (Correlation analysis) ([1]; Glucose 5-0.019 mg/ml, 3 μM probe, probe-specific excitation λ, emission 545 nm): Decreases
RFU change (Signal deviation with increasing [Carbohydrate]) ([1]; Glucose 5-0.019 mg/ml, 3 μM probe, spectral analysis, Excitation 300-500, Emission 545): Decreases
carbohydrate can be detected and/or differentiated by the LCO ([1]; Glucose, conclusion from change in signal magnitude and/or shift in λmax): can be detected and/or differentiated
Gradient Parameters (gradient of regression line) [1, 7]: −116.0 ± 41.0
Linear relationship [1, 7]: Significant
Quality of Gradient [1, 7]: Negative
Sensitivity ([1]; to glucose): Yes
RFU change (Correlation analysis) ([2]; Glycogen 5-0.019 mg/ml, 3 μM probe): Decreases
RFU change (Signal deviation with increasing [Carbohydrate]) [2, 8]: Decreases
λmax change [2, 8]: Redshift
carbohydrate can be detected and/or differentiated by the LCO ([2]; Glycogen): can be detected and/or differentiated
RFU change (Correlation analysis) ([2]; Heparin 5-0.019 mg/ml, 3 μM probe): Unclear
RFU change (Signal deviation with increasing [Carbohydrate]) ([2]; Heparin 5-0.019 mg/ml, 3 μM probe, spectral analysis, Excitation 300-500, Emission 545): Unclear
carbohydrate can be detected and/or differentiated by the LCO ([2]; Heparin): can be detected and/or differentiated
Gradient Parameters (gradient of regression line) ([2]; glycogen concentration vs RFU): −349.2 ± 96.7
Linear relationship ([2]; glycogen concentration vs RFU): Significant
Quality of Gradient ([2]; glycogen concentration vs RFU): Negative
Gradient Parameters (gradient of regression line) ([2]; heparin concentration vs RFU): −12.4 ± 108
Linear relationship ([2]; heparin concentration vs RFU): Not Significant
Quality of Gradient ([2]; heparin concentration vs RFU): Horizontal
Sensitivity ([2]; to glycogen): Yes
Sensitivity ([2]; to heparin): No
RFU change (Correlation analysis) ([3]; Cellulose 10-[…], 3 μM probe): Decrease
RFU change (Signal deviation with increasing [Carbohydrate]) ([3]; Cellulose 10-[…], 3 μM probe, spectral analysis, Excitation 300-500, Emission 545): Unclear
RFU change (Correlation analysis) ([3]; Chitin 10-[…], 3 μM probe): Increases
RFU change (Signal deviation with increasing [Carbohydrate]) [3, 9]: Increases
λmax change [3, 9]: Redshift
carbohydrate can be detected and/or differentiated by the LCO ([3]; Chitin): can be detected and/or differentiated
Gradient Parameters (gradient of regression line) [3, 10]: −139.6 ± 344.8
Quality of Gradient [3, 10]: Horizontal
Gradient Parameters (gradient of regression line) [3, 11]: 2824 ± 156.6
Linear relationship [3, 11]: Significant
Quality of Gradient [3, 11]: Positive
Sensitivity ([3]; to cellulose): No
Sensitivity ([3]; to chitin): Yes
Sensitivity ([3]; to β-1,3-glucan): Yes
carbohydrate can be detected and/or differentiated by the LCO ([3]; β-1,3-Glucan): can be detected and/or differentiated
RFU change (Correlation analysis) ([3]; β-1,3-glucan 10-[…], 3 μM probe): Decrease
RFU change (Signal deviation with increasing [Carbohydrate]) ([3]; β-1,3-glucan 10-[…], 3 μM probe, spectral analysis, Excitation 300-500, Emission 545): Decrease
Gradient Parameters (gradient of regression line) [3, 12]: −898.7 ± 117.0
Quality of Gradient [3, 12]: Negative
RFU change (Correlation analysis) ([4]; Amylose 5-0.019 mg/ml, 3 μM probe): Increases
RFU change (Signal deviation with increasing [Carbohydrate]) ([4]; Amylose 5-0.019 mg/ml, 3 μM probe, spectral analysis, Excitation 300-500, Emission 545): Increases
carbohydrate can be detected and/or differentiated by the LCO ([4]; Amylose): can be detected and/or differentiated
RFU change (Correlation analysis) ([4]; Cellulobiose 5-0.019 mg/ml, 3 μM probe): Increases
RFU change (Signal deviation with increasing [Carbohydrate]) [4, 13]: Increases
λmax change [4, 13]: No change
carbohydrate can be detected and/or differentiated by the LCO ([4]; Cellulobiose): can be detected and/or differentiated
Gradient Parameters (gradient of regression line) [4, 14]: 493.6 ± 346.9
Quality of Gradient [4, 14]: Horizontal
Gradient Parameters (gradient of regression line) [4, 15]: 178.6 ± 35.1
Linear relationship [4, 15]: Significant
Quality of Gradient [4, 15]: Positive
Sensitivity ([4]; to amylose): Yes
Sensitivity ([4]; to cellulobiose): Yes
RFU change (Correlation analysis) ([5]; Sodium alginate 5-0.019 mg/ml, 3 μM probe, probe-specific excitation λ, emission 545 nm): Increases
RFU change (Signal deviation with increasing [Carbohydrate]) ([5]; Sodium alginate 5-0.019 mg/ml, 3 μM probe, spectral analysis, Excitation 300-500, Emission 545): Increases
Gradient Parameters (gradient of regression line) [5, 16]: 88.7 ± 62.0
Quality of Gradient [5, 16]: Horizontal
Sensitivity ([5]; to sodium alginate): No
RFU change (Correlation analysis) ([6]; Chondroitin Sulfate A 5-0.019 mg/ml, 3 μM probe, probe-specific excitation λ, emission 545 nm): Unclear
RFU change (Signal deviation with increasing [Carbohydrate]) [6, 17]: Decreases
λmax change [6, 17]: No change
Gradient Parameters (gradient of regression line) [6, 18]: 125.3 ± 156.5
Quality of Gradient [6, 18]: Horizontal
Sensitivity ([6]; to Chondroitin Sulfate A): No

Reference: patent US9958439B2, “Carbohydrate detection” (RICHTER LIFE SCIENCE DEVELOPMENT AB, priority 2012, dated 2018)
